Test results: patent publication US20180008629A1, “Compositions and Methods for Treating NLRP3 Inflammasome-Related Diseases and Disorders” (priority 2015, published 2018)

Key:
[1] = due to increased clearance; literature; cited from earlier work
BMDMs [2] = assay: BMDM viability and proliferation (MTT assay); assay type: cell-based, mouse
Experimental: (§1) The BMDM proliferation in response to BHB treatment was analyzed using the MTT assay according to manufacturer's instructions. The BMDM were incubated with Asante Potassium Green 1 (APG-1) which is a fluorescent indicator with a Kd for measuring cytosolic K+ concentration. It has non-ratiometric large fluorescence dynamic range allows sensing of even small changes in K+ concentration. Optimal excitation was recorded at 517 nm. In addition, the K+ was measured in BMDMs using an ElementXR or Agilent 7700 Inductively Coupled Mass Spectrometry (ICP-MS) using previously described methods (Muñoz-Planillo et al., 2013, Immunity 38:1142-1153). For error analysis, samples and standard solutions were run in duplicate.

BMDMs [3] = assay: Intracellular K+ measurement in BMDMs (APG-1 dye, ICP-MS); assay type: cell-based, mouse; conditions: LPS primed BMDMs
Experimental: as §1

NLRP3 inflammasome [4] = target: T1, NLRP3 inflammasome (Mus musculus, UniProt Q8R4B8); assay: NLRP3 inflammasome activation in LPS primed BMDMs (caspase-1 / IL-1β immunoblot); assay type: cell-based; parameters: endogenous in cells; host or cells: mouse bone marrow derived macrophages (A1)
Experimental: All steps were performed using sterile technique. Femurs were collected in RPMI (Life Technologies, Grand Island, N.Y.)+5% FBS (R5; Omega Scientific, Tarzana, Calif.). Both ends of the femur were then cut and the femur was flushed with R5. The bone marrow was centrifuge at 450 g for 5 min, the supernatant was decanted and red blood cells were lysed using ACK lysis buffer (Quality Biological, Gaithersburg, Md.). After neutralization with R5, bone marrow cells were centrifuged, resuspended in 10 ml of R5 and placed into a 6 well plate. Non-adherent cells were collected the following morning. The non-adherent cells were resuspended at 4×10^6 cells/ml in media consisting of 10 ml supernatant of non-adherent cells, 7.2 ml L929 conditioned media, 6.8 ml R5 and MCSF (long/ml; R&D Systems, Minneapolis, Minn.). An additional 2 ml of fresh media was added 4 d after isolation. Non-adherent cells were collected on day 7, separated by density gradient separation using Fico/Lite (Atlanta Biologicals, Flowery Branch, Ga.) and mononuclear cells were collected. Cells were rinsed twice with Dulbecco's PBS+2% FBS, and resuspended at 1×10^6 cells/ml. Cells were treated with ultrapure LPS (Invivogen, San Diego, Calif.) alone or in combination with 5 mM ATP (Sigma, St. Louis, Mo.) or 200 μM palmitate-BSA (Sigma). The BMDMs were also primed with ultrapure lipid A (10 μg/ml; Invivogen, San Diego, Calif.), lipoteichoic acid (10 μg/ml; Invivogen), or Pam3-CSK4 (10 μg/ml; Invivogen) for 4 hour and stimulated with various NLRP3 activators (ATP 5 mM; Sigma, MSU 250 ug/ml; Invivogen, Silica; 200 ug/ml; Invivogen, sodium palmitate; 200 μM; Sigma, ceramide C6 80 μg/ml; Cayman, and sphingosine 40 μM; Cayman, Ann Arbor, Mich.) for 1 hour together with D-BHB or L-(BHB) at indicated concentration. The cell supernatants and cell lysates were collected 1 h after BHB treatment and analyzed for caspase-1 and IL-1β.
The BMDM cell lysates were prepared using RIPA buffer and immediately snap frozen in liquid nitrogen. Samples were left on ice for 1 hour with vortexing every 10 min. Samples were then centrifuge at 14,000 g for 15 min, the supernatant was collected and the protein concentration was determined using the DC Protein Assay (Bio-RAD). […] The immune complexes were visualized by incubation with horseradish peroxidase-conjugated anti-rat or anti-rabbit secondary antibody (Amersham Biosciences). Immunoreactive bands were visualized by enhanced chemiluminescence (PerkinElmer Life Sciences).

NLRP3^L351P = NLRP3^L351P (Mus musculus, UniProt Q8R4B8, L351P); assay type: cell-based; parameters: endogenous in cells; Nlrp3 L351P Cre+ mice after tamoxifen in vivo (A14); conditions: constitutively active NLRP3 inflammasome, LPS
NLRP3 inflammasome [5] = target: T1, NLRP3 inflammasome; assay: IL-1β secretion from mouse neutrophils after NLRP3 activation (western blot); assay type: cell-based; parameters: endogenous in cells; host or cells: mouse bone marrow neutrophils (A15)
Experimental: Neutrophils from young (3 month) and aged (24 months) mice were stimulated with LPS, and the NLRP3 inflammasome was activated by treatment with ATP and C6 Ceramide. BHB was provided at the same time of ATP and ceramide treatment.
Adult and old neutrophils were analyzed for ketogenic and ketolytic enzyme expression. Gene expression was measured by RT-PCR (FIG. 14A). Expression was normalized to Gapdh expression and was represented as expression relative to adult gene expression. SCOT, HMGCL, and β-Actin protein expression were assessed in unstimulated adult and old neutrophils by Western blot (FIG. 14B). Dose response to BHB was measured by assaying IL-1β secretion in supernatants from adult neutrophils (FIG. 14C). Western blots were generated of IL-1β in supernatants from adult and old neutrophils stimulated with LPS+ATP or LPS+ceramide (FIG. 14D). In FIG. 14A, each dot represents a pooled sample of n=2 mice. In FIGS. 14B-14D, each blot is representative of at least two independent experiments. Each sample analyzed by Western blot is pooled from n=4-6 mice per experiment.
Adult neutrophils were stimulated with LPS+ATP+BHB to test the mechanism by which BHB blocks IL-1β secretion. LPS-primed neutrophils were stimulated with ATP in the presence of BHB or niacin (FIG. 15A). Supernatants were analyzed for IL-1β secretion by Western blot. Wildtype of mCAT neutrophils were stimulated with LPS+ATP+BHB (FIG. 15B). Supernatants were analyzed for IL-1β secretion by Western blot. Catalase and β-Actin expression were measured by Western blot in neutrophil cell lysates. LPS-primed neutrophils were stimulated with ATP+BHB in the presence of 3-MA or AOA as indicated (FIG. 15C). Supernatants were analyzed for IL-1β secretion by Western blot. The enantiomer S-BHB was tested in a dose response for the ability to inhibit inflammasome activation (FIG. 15D). Supernatants were analyzed for IL-1β secretion by Western blot. FCAS neutrophils were incubated with 4-OHT followed by LPS priming. […] Supernatants were analyzed for IL-1β secretion by Western blot. […]

human monocytes = assay: Cytokine secretion from LPS stimulated human monocytes (ELISA); assay type: cell-based; conditions: LPS (1 μg/mL) 4 h, increasing concentrations of BHB
Experimental: The cryopreserved peripheral blood monocuclear cells were used to sort CD14+ monocytes using isolation kit from Miltenyi (130-091-153). A total of 6 healthy subjects, ([…], […], person, person, […] and […]) were used for monocyte isolations. Monocytes were seeded in 6 well plates at concentration of 3 million/mL of RPMI1640 media with 10% FCS and antibiotic/antimycotic mixture and stimulated with LPS for 4 h. The supernatants were used to measure IL-1β, IL-18 and TNF using ELISA. Human peripheral blood was collected by the Health Apheresis Unit and the Clinical Core Laboratory, the National Institute on Aging-Intramural Research Program, under Human Subject Protocol #2003054 and Tissue Procurement Protocol #2003-071.

[6] = Gout induced by intra-articular injection of MSU in rats fed ketogenic diet; assay type: in vivo, rat; conditions: ketogenic diet 1 week
Experimental: Rats were fed a ketogenic diet for 1 week prior to the induction of gout by intra-articular injection of MSU. Blood BHB levels were measured in rats after 1 week ketogenic diet feeding, prior to injection with MSU (FIG. 21A). Knee thickness was measured daily (FIG. 21B). The increase in knee swelling relative to baseline thickness was measured 2 days after gout induction (FIG. 21C). Serum IL-1β was measured by ELISA on day 2 post-MSU injection (FIG. 21D).

T1 sequence (Q8R4B8 whole entry): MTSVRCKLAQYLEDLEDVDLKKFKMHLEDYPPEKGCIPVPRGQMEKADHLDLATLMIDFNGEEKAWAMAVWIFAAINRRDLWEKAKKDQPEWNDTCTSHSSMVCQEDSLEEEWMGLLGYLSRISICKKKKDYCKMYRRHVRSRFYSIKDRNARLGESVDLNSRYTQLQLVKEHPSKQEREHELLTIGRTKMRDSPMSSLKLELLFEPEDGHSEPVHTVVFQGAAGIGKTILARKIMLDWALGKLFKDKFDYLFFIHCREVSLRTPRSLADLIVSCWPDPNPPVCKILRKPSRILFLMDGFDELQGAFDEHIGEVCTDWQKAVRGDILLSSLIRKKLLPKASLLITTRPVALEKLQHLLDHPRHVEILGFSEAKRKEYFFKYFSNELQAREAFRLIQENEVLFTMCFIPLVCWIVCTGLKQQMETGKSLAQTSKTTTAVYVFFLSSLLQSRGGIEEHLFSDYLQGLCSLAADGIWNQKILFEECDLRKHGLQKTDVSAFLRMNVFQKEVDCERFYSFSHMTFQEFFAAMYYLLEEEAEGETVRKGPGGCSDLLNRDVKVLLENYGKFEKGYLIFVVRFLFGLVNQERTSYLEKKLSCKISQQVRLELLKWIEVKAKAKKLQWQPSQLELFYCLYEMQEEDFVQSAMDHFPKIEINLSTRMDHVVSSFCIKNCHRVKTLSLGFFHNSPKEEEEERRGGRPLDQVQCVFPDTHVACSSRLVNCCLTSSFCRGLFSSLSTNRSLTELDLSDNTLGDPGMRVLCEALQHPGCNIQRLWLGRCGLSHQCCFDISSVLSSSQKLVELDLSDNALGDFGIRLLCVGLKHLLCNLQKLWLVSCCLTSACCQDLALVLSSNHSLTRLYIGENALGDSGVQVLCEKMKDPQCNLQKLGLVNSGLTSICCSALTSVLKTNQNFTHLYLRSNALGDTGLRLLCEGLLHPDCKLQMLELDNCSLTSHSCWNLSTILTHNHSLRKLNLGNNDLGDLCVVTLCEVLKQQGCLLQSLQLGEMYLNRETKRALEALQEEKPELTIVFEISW
NLRP3^L351P, sequence (Q8R4B8 whole entry L351P): as the sequence (Q8R4B8 whole entry) above, with L351P counted along it

## CC(O)CC(=O)O (stereo not drawn) [BHB, β-hydroxybutyrate]
[1]
  serum concentration after administration: insufficient to achieve sustained high serum concentration
BMDMs [2]; 10 mM concentration
  cellular proliferation: significantly increased
BMDMs [2]; increasing concentration of BHB
  viability of BMDMs: did not impair
BMDMs [3]; BHB 1 h
  decline in intracellular K+ in response to MSU: prevented the decline
BMDMs [3]; BHB (10 mM)
  decline in intracellular K+ in response to ATP: prevented the decline
BMDMs [3]; C6 ceramide and BHB 1 h
  decline in intracellular K+ in response to ceramides: prevented the decline
NLRP3 inflammasome [4]; Atg5 deficient BMDMs, LPS, ATP, BHB (10 mM)
  BHB's inhibitory effects on the inflammasome in macrophages lacking Atg5: not required
NLRP3 inflammasome [4]; BHB (10 mM) with AICAR 2 mM or Compound C 25 μM
  ATP-induced caspase-1 activation without involvement of AMPK: suppressed
NLRP3 inflammasome [4]; BHB with AICAR or Compound C
  ATP-induced IL-1β activation without involvement of AMPK: suppressed
NLRP3 inflammasome [4]; BMDMs primed with TLR1/2 ligand Pam3-CSK4 4 h, ATP and BHB 1 h
  inflammasome activation after priming with Pam3-CSK4: effectively suppressed
NLRP3 inflammasome [4]; BMDMs primed with TLR2 agonist LTA 4 h, ATP and BHB 1 h
  inflammasome activation after priming with lipoteichoic acid (LTA): effectively suppressed
NLRP3 inflammasome [4]; BMDMs primed with TLR4 agonist lipid A 4 h, ATP and BHB 1 h
  inflammasome activation after priming with lipid A: effectively suppressed
NLRP3 inflammasome [4]; Gpr109a deficient BMDMs, LPS and ATP, BHB (10, 20 mM)
  BHB's anti-inflammasome effects in BMDMs deficient in GPR109a: could not be abrogated
NLRP3 inflammasome [4]; LPS primed BMDMs, ATP and BHB for 60 minutes
  processing of biologically active p17 form of IL-1β: dose-dependently inhibited
NLRP3 inflammasome [4]; LPS primed BMDMs, ATP and BHB for 60 minutes, Western blot of p20
  ATP-induced caspase-1 cleavage: dose-dependently inhibited
NLRP3 inflammasome [4]; LPS primed BMDMs, C6 ceramide 6 h (80 μg/ml)
  inflammasome activation by ceramides: blocked
NLRP3 inflammasome [4]; LPS primed BMDMs, MSU
  monosodium urate (MSU) crystals induced caspase-1 activation: inhibited
NLRP3 inflammasome [4]; LPS primed BMDMs, nigericin (10 μM) 1 h
  inflammasome activation by nigericin: blocked
NLRP3 inflammasome [4]; LPS primed BMDMs, palmitate (200 μM) 12 h
  inflammasome activation by palmitate: blocked
NLRP3 inflammasome [4]; LPS primed BMDMs, silica 1 hour
  inflammasome activation by silica particles: blocked
NLRP3 inflammasome [4]; LPS primed BMDMs, sphingosine (50 μM) 1 h
  inflammasome activation by sphingosine: blocked
NLRP3 inflammasome [4]; Sirt2−/− or Ucp2−/− BMDMs, LPS and ATP, BHB (10 mM) 1 h
  BHB's inhibitory effects on NLRP3 activation after ablation of Sirt2 or UCP2: did not control
NLRP3^L351P
  ASC oligomerization in macrophages of FCAS mice: directly prevented
NLRP3 inflammasome [5]; adult and old mouse neutrophils, LPS+ATP or LPS+ceramide, IL-1β in supernatants
  NLRP3 inflammasome activation in neutrophils: inhibit
NLRP3 inflammasome [5]; adult neutrophils stimulated with LPS+ATP+BHB
  mechanism of inhibitory effects in neutrophils: physically blocking inflammasome assembly
NLRP3 inflammasome [5]; neutrophils from young (3 month) and aged (24 month) mice, LPS, ATP and C6 Ceramide, 10 mM BHB
  IL-1β production after NLRP3 activation in neutrophils: blocks
Human monocytes
  IL-1β secretion: dose dependently inhibited
  IL-18 secretion: dose dependently inhibited
  TNFα production: without significantly affecting
[6]
  Gout-induced inflammation: protect
